From paper PMC5326599 (Antiviral research, 2017)
Several values for one entry are separate records, joined by “and”; a condition that tells them apart may be missing. Equal values may be shown once. Read-outs that look alike come from different tables or passages of the source. Marks after values point to notes of the source that are not given here.

Legend:
[1] = tested on: A/Solomon Islands/3/2006 (H1N1) virus; experiment: microbe, parasite or virus in culture; type: cell-based; conditions: read-out: EC50, A/Solomon Islands/3/2006 (H1N1)
[2] = tested on: A/WSN/33 (M2-N31S) (H1N1) virus; type: cell-based, influenza A virus; conditions: read-out: EC50, A/WSN/33 (M2-N31S) (H1N1)
[3] = tested on: A/Udorn/72 (H3N2) virus (M2-WT); experiment: microbe, parasite or virus in culture; type: cell-based, influenza A virus
[4] = tested on: influenza A/WSN/33 (M2-N31S + V27A) (H1N1) virus; parameters: species or system BALB/c mice; conditions: mouse, in vivo
[5] = tested on: A/WSN/33 (M2-N31S + V27A) (H1N1) virus; type: cell-based, influenza A virus
[6] = biological target: A/Udorn/72 (M2-V27A) proton channel (Influenza A virus, UniProt P0DOF5, V27A); type: biochemical
[7] = biological target: M2-S31N channel (Influenza A virus, UniProt P0DOF5, S31N); type: biochemical

| SMILES | EC50 ([1]; Influenza A virus, H1N1, MDCK) [µM] | EC50 [2] [µM] | EC50 ([3]; Influenza A virus, H3N2, read-out: antiviral EC50 at passage 1) [µM] | MDD ± SD (mean day of death) [4] | Mean Lung Parameters ± SD (Day 6): Virus Titer [4] | Mean Lung Parameters ± SD (Day 6): Weight [4] | Survivors/Total [4] | protection / effectiveness (in words) [4] | Mean Lung Parameters ± SD (Day 6): Hemorrhage Score [4] | protection from death [4] [%] | inhibition of plaque formation [5] | channel conductance current at the second activation event, % of the maximum current [6] [%] | EC50 ([5]; read-out: Antiviral Efficacy EC50, A/WSN/33 (M2-N31S + V27A) (H1N1) M2-V27A) [µM] | channel inhibition at 100 μM, M2-S31N [7] [%] | EC50 [1] [µM] | EC50 ([3]; read-out: antiviral EC50 at passage 1) [µM] | EC50 ([3]; read-out: antiviral EC50 at passage 2) [µM] |
| --- | --- | --- | --- | --- | --- | --- | --- | --- | --- | --- | --- | --- | --- | --- | --- | --- | --- |
| NC12CC3CC(CC(C3)C1)C2 [Amantadine (1), amantadine] | […] | […] | […] | […] | […] | […] | […] | minimum effectiveness | – | – | – | – | – | – | – | – | – |
| CCOC(=O)C1=C[C@@H](OC(CC)CC)[C@H](NC(C)=O)[C@@H](N)C1 [Oseltamivir (4), Oseltamivir] | – | – | – | – | 2.5 ± 0.2 Log10 CCID50/g | 178 ± 28 mg | 10/10^*** | – | 0.0 ± 0.0 | 100 | – | – | – | – | – | – | – |
| CCC(CC)O[C@@H]1C=C(C(=O)O)C[C@H](N)[C@H]1NC(C)=O [Oseltamivir carboxylate (4), Oseltamivir carboxylate, reference compound] | – | – | – | – | – | – | – | – | – | – | complete inhibition | – | – | – | – | – | – |
| NC1CCC2(CC1)C1CC3CC(C1)CC2C3 (centres unmarked) [Compound 3, spiroadamantane amine] | – | […] | – | […] | […] | […] | […] | highly protective | – | – | – | […] | […] | […] | […] | […] | […] |
